# Tests used:
# [1] = tested on: patients with epilepsy, behavioral and nutritional abnormalities; test: Clinical observations under oral nicotinamide therapy; type: in vivo, human
# [2] = tested on: subjects suspected to suffer from tryptophan malabsorption; conditions: 20 mg/kg/day in six doses, three subjects; cited from earlier work
compound,measurement,setting,value
"NC(=O)c1cccnc1 [nicotinamide, pyridine-3-carboxamide]",indican in plasma and urine,[1]; nicotinamide therapy,normalization
same,"behavioral, neurological and psychiatric abnormalities",[1]; oral nicotinamide,Remarkable improvement up to normalization
same,intestinal tryptophan absorption,[1]; oral nicotinamide,stimulates intestinal tryptophan absorption
same,clinical picture under nicotinamide therapy,"[1]; patients with epilepsy, behavioral and nutritional abnormalities hardly improved by antiepileptic, antidepressant and other drugs",normalized in one or two months
same,effect on behavioral and psychiatric illnesses,[2],beneficial effect

# From patent US10881614B2, “Nicotinamide compositions and the therapeutic use thereof” (APeT Holding B.V., priority 2011, dated 2021)
